In PubChem BioAssay (NCI):
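Briefly, cells in 96-well plates were exposed to five compound concentrations for 48 h, and endpoints were estimated by linear interpolation. The concentration for full growth arrest is given as TGI.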

Legend:
Experiment in all cases: NCI tumour cell line growth inhibition, 48 h
KM12 colon = tested on: KM12 colon
IGROV1 ovarian = tested on: IGROV1 ovarian
U251 CNS = tested on: U251 CNS
MALME-3M melanoma = tested on: MALME-3M melanoma
HCT-15 colon = tested on: HCT-15 colon
HOP-92 NSCLC = tested on: HOP-92 NSCLC
SW-620 colon = tested on: SW-620 colon
UACC-62 melanoma = tested on: UACC-62 melanoma
CAKI-1 renal = tested on: CAKI-1 renal
HL-60(TB) leukemia = tested on: HL-60(TB) leukemia

| SMILES | TGI (KM12 colon) [µM] | TGI (IGROV1 ovarian) [µM] | TGI (U251 CNS) [µM] | TGI (MALME-3M melanoma) [µM] | TGI (HCT-15 colon) [µM] | TGI (HOP-92 NSCLC) [µM] | TGI (SW-620 colon) [µM] | TGI (UACC-62 melanoma) [µM] | TGI (CAKI-1 renal) [µM] | TGI (HL-60(TB) leukemia) [µM] |
| --- | --- | --- | --- | --- | --- | --- | --- | --- | --- | --- |
| COc1cc(/C=C2\N=C(c3ccccc3)N(c3nc4c(OC)ccc(OC)c4s3)C2=O)cc(OC)c1OC | > 100 | > 100 | > 100 | > 100 | > 100 | > 100 | > 100 | > 100 | > 100 | > 100 |
| CCCCc1ccc(Nc2ncc3[nH]cnc3n2)cc1 | 45 | 39.6 | 60.4 | 40.6 | 38.5 | 49.7 | 42.6 | 49.6 | 36.4 | > 100 |
